Laboratory results reported in patent US10197552B2, “Monitoring cell-to-cell interactions” (Oakland University, priority 2015, dated 2019).

Legend:
Assay type in all cases: cell-based, human
HUVECs = assay: QCM monitoring of HUVEC activation by TNF-α, with microscope observation
Protocol: The gold QCM consists of a thin AT-cut quartz crystal wafer with a gold electrode on each side (9 MHz, non-polished with ˜1000 Å gold, geometric area is 0.28 cm^2, Beijing Chenjing Electronics Co., Ltd., China). The gold QCM was mounted between two biocompatible silicon O-rings to allow only one side of the gold electrode to be exposed to the liquid. The reaction chamber above the crystal was held with a 1 mL chlorinated polyethylene centrifugal tube. The device, being covered, was placed in a humidified CO2 incubator controlled at 5% CO2 and 37° C. to prevent evaporation from the culture holder.
An RQCM instrument (Maxtek Inc., USA) was used to simultaneously record resonant frequency (f0) and motional resistance (R1) of the QCM electrodes.
After being sterilized with 75% ethanol under UV light for 0.5 hours, the QCM culture-chamber was washed three times with PBS. Then, 500 μL of EGM-2 medium was added and the entire culture-chamber was put into the incubator. As soon as the QCM readout reached a stable baseline, 50 μL of EGM-2 medium containing freshly trypsinized 3×10^4 cells was added. All QCM measurements were performed in a static mode without stirring. The Δf0 and ΔR1 responses were simultaneously monitored in the process of cell attachment and growth in the next 24 hours.
Next, the EGM-2 medium was replaced by a medium containing 10% FBS and TNF-α with a specified concentration (ranging from 0 ng/ml to […]), allowing the HUVECs to suffer growth and activation up to 20 hours. After the concentration of HL-60 and KG-1 cells reached 5×10^6 cells mL^−1, they were collected from the medium by centrifugation at 1500 g for 5 minutes to remove IMDM, and were re-suspended with EGM-2 medium supplemented with 10% FBS. This was performed to reduce variations of the viscosity of the medium for measurements. The density of these suspension cells was determined with a hemacytometer. […]

[1] = test system: adhesion of KG-1 cells to activated HUVECs; assay: QCM response to KG-1 cell binding on HUVECs activated with different TNF-α concentrations; details: 25×10^4 KG-1 cells on HUVECs activated by TNF-α at different concentrations; FIGS. 12C, 12D
Protocol: Next, the EGM-2 medium was replaced by a medium containing 10% FBS and TNF-α with a specified concentration (ranging from 0 ng/ml to […]), allowing the HUVECs to suffer growth and activation up to 20 hours. After the concentration of HL-60 and KG-1 cells reached 5×10^6 cells mL^−1, they were collected from the medium by centrifugation at 1500 g for 5 minutes to remove IMDM, and were re-suspended with EGM-2 medium supplemented with 10% FBS. This was performed to reduce variations of the viscosity of the medium for measurements. The density of these suspension cells was determined with a hemacytometer.
Finally, 100 μL of the cell-suspending solution was added into the measuring chamber. The Δf0 and ΔR1 responses were simultaneously monitored for 22 hours.
These examples confirmed that AML cells adhere to activated HUVECs based on binding with E-selectin. It is possible that the extent of activation of HUVECs, which is closely related to TNF-α concentration, should have an influence on the binding of AML cells. FIGS. 12A and 12B show the QCM responses induced by the addition of KG-1 cells with the same concentration (i.e., 25×10^4) on activated HUVECs after stimulation of TNF-α with different concentrations. […]

[2] = test system: adhesion of AML cells (KG-1) to HUVECs; assay: Number of adherent AML cells on HUVECs in co-culture, flow cytometric analysis; details: treated KG-1/HUVEC co-cultures as, in comparison to untreated controls; FIG. 15
Protocol: (§1) As illustrated throughout Example 1, acute myeloid leukemia (AML) cells mediate endothelial cell (EC) activation. In this Example, the effects of anti-inflammatories, namely thalidomide and lenalidomide, to prevent AML induced EC activation were tested. KG-1 cells were pre-treated with 100 μM thalidomide or 1 μM lenalidomide (half of total dose) for 1-hour. Co-cultures were then established by adding the pre-treated KG-1 cells (1×10^6 cells) to cultures containing HUVECs (˜80% confluence) with the addition of the second half of the total dose of the respective anti-inflammatories. After 24-hours, E-selectin expression on HUVECs was measured as a marker of EC activation using flow cytometry. Untreated (i.e., no anti-inflammatory added) co-cultures of KG-1 on HUVECs were used as controls. The results are shown in FIG. 14, where the + indicates whether the co-culture was the control, was treated with thalidomide, or was treated with lenalidomide.
It was determined whether thalidomide and lenalidomide were able to reduce EC activation mediated AML cell adhesion. Adherent cells were collected from treated (as described above) and control co-cultures, and the numbers of adherent AML cells in each population were enumerated based on flow cytometric analysis. […]

[3] = test system: E-selectin expression on HUVECs; assay: E-selectin expression on HUVECs in KG-1 co-cultures, flow cytometry (marker of EC activation); details: KG-1/HUVEC co-culture, 24 hours; KG-1 pre-treated 1 hour with 100 μM thalidomide or 1 μM lenalidomide (half of total dose), second half added to co-culture; vs untreated co-cultures; FIG. 14
Protocol: as §1

[4] = maximum reported concentration of TNF-α (range 0 to 400 ng ml^−1), 3×10^4 HUVECs on QCM gold electrode

TNF-α
activation of HUVECs (shape-change, microscope images) (HUVECs; 40, 200 and 400 ng mL^−1 TNF-α, FIGS. 5B-5D): effectively induce the activation of HUVECs in a dose dependent manner | frequency shifts in Stage IV as compared to those in Stage I (HUVECs; [4]): 15% | resistance changes in Stage IV as compared to those in Stage I (HUVECs; [4]): 7% | QCM response shifts (|Δf0| and ΔR1 changes) on addition of KG-1 cells [1]: increased with enhancement of TNF-α concentrations in the range of 2 ng mL^−1-200 ng mL^−1

O=C1CCC(N2C(=O)c3ccccc3C2=O)C(=O)N1 (centres unmarked) [thalidomide]
numbers of adherent AML cells [2]: significantly reduce | E-selectin expression on HUVECs [3]: significant reduction

Nc1cccc2c1CN(C1CCC(=O)NC1=O)C2=O (centres unmarked) [lenalidomide]
numbers of adherent AML cells [2]: significantly reduce | E-selectin expression on HUVECs [3]: significant reduction
